Paper PMC10287566, “Signaling-specific inhibition of the CB1 receptor for cannabis use disorder: phase 1 and phase 2a randomized trials” (Nature Medicine, 2023)
Read-outs that look alike come from different tables or passages of the source.

How the values were obtained:
healthy volunteers = experiment: Phase 1 single-ascending-dose (SAD) study, safety
Method: Four single oral dose levels (0.2, 0.6, 2 and 6 mg) were given in the morning on day 1 in the SAD study, and three oral doses (0.6, 2 and 6 mg) were given in the morning of day 1 to day 7 in the MAD study, to independent dose cohorts. […] Each dose cohort comprised eight volunteers (six (5/1) active and two (1/1) placebo per dose level).
During the rest of the study, only volunteers with pathological values were excluded.
Participants were admitted to the research clinic at midday before dosing (day −1). In the SAD study, they remained in-house until day 8 for PK and PD samples and safety assessments. In the MAD study, participants remained in-house until day 14 and returned to the research facility on an outpatient basis to have PK and safety assessments at 216 h and 264 h (day 16 and day 18) after their last dose (day 7). Safety monitoring (physical examinations, vital sign measurements, 12-lead ECGs, clinical safety laboratory tests and AE monitoring) were performed throughout the studies. Psychometrics tests (Bond & Lader VAS, Addiction Research Center Inventory (49-item short form) (ARCI-49) and Profile of Mood States 65 self-report items (POMS-65)) and the Columbia-Suicide Severity Rating Scale (C-SSRS) test were performed at baseline, before dose and at 4 h and 24 h after dose on day 1 and day 7 (MAD study, only) and C-SSRS only at 24 h.
All participants who had AEs, whether considered associated with the use of the investigational product or not, were monitored for as long as needed to determine resolution.

[1] = target: GR (glucocorticoid receptor) (Homo sapiens, UniProt P04150); experiment: Eurofins binding screen; conditions: read-out: Percent inhibition of control specific binding
Sequence of GR (glucocorticoid receptor) (P04150 whole entry): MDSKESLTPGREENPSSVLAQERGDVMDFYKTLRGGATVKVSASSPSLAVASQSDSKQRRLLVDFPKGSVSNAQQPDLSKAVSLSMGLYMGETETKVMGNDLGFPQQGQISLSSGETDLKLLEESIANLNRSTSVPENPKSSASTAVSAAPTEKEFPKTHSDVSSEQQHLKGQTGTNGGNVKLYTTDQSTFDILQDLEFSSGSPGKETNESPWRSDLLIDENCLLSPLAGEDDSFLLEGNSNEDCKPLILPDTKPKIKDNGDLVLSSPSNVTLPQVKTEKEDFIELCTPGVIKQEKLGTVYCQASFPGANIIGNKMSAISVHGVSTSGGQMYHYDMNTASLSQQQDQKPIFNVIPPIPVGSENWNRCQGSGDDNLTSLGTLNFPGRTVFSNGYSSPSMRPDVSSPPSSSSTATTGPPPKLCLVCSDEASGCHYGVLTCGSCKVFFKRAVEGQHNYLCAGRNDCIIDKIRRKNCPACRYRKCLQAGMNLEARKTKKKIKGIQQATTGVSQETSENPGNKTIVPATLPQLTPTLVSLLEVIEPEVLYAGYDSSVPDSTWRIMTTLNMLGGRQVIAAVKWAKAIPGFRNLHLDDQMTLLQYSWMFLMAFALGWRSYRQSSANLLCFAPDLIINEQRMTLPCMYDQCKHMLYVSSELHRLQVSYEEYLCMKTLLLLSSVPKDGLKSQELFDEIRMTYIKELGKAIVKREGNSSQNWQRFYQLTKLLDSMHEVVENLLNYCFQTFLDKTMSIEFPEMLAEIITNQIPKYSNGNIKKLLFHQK

rats [2] = experiment: 91-d repeated oral toxicity study in rats (GLP); format: in vivo; conditions: for change in blood urea level: male rats, week 14
[3] = 91-d repeated oral toxicity study in rats (GLP); format: in vivo; conditions: both sexes, Sprague Dawley SPF, rat, in vivo, rats
rats [4] = experiment: THC-induced dopamine release in nucleus accumbens (microdialysis); format: in vivo; conditions: 15 µg kg^−1 oral
[5] = MAD study, plasma pharmacokinetics; format: in vivo, human; conditions: for Cmax / Tmax / half-life: human, plasma, oral; for Cmax: read-out: Cmax, mean (±SD); for Tmax: read-out: tmax, median (range)
Method: Samples were collected at the same timepoints on day 1 and day 7: before dose and 0.5, 1, 1.5, 2, 3, 4, 6, 8 and 12 h after dose. Additional samples were collected on day 2 to day 6 before dose (that is, 24 h from the previous dose) and on days […] (that is, 24, 48, 72, 96, 120, 144, 168, 216 and 264 h after the last dose at day 7).
For both SAD and MAD studies, the PK parameters were calculated using standard non-compartmental methods for those with sufficient plasma concentration data.

mice = experiment: THC-induced increase in psychomotor stimulation (open field); format: in vivo
[6] = 0.6 mg/day, MAD Day 1, 0.6 mg/day
[7] = 0.6 mg/day, MAD Day 7, 0.6 mg/day
[8] = Increase in psychomotor stimulation

COc1ccc(CO[C@H]2CC[C@@]3(C)C(=CC[C@H]4[C@@H]5CC[C@H](C(C)=O)[C@@]5(C)CC[C@@H]43)C2)cc1 [AEF0117, 3β-(4-methoxybenzyloxy)pregn-5-en-20-one]
Number of TEAEs (healthy volunteers; single 0.2 mg): 4 E
Number of participants with a TEAE leading to discontinuation (healthy volunteers; single 0.2 mg): 0 n (%)
Number of participants with an SAE (healthy volunteers; single 0.2 mg): 0 n (%)
Number of participants with at least one TEAE (healthy volunteers; single 0.2 mg): 2 (33.3) n (%)
Participants with TEAE: Mild (healthy volunteers; single 0.2 mg): 2 (33.3) n (%)
Participants with TEAE: Moderate (healthy volunteers; single 0.2 mg): 1 (16.7) n (%)
Participants with TEAE: Not related (healthy volunteers; single 0.2 mg): 1 (16.7) n (%)
Participants with TEAE: Severe (healthy volunteers; single 0.2 mg): 0 n (%)
TEAEs by SOC: Gastrointestinal disorders (healthy volunteers; single 0.2 mg): 2 (33.3) n (%)
TEAEs by SOC: Investigations (healthy volunteers; single 0.2 mg): 0 n (%)
TEAEs by SOC: Nervous system disorders (healthy volunteers; single 0.2 mg): 1 (16.7) n (%)
Number of TEAEs (healthy volunteers; single 0.6 mg): 0 E
Number of participants with a TEAE leading to discontinuation (healthy volunteers; single 0.6 mg): 0 n (%)
Number of participants with an SAE (healthy volunteers; single 0.6 mg): 0 n (%)
Number of participants with at least one TEAE (healthy volunteers; single 0.6 mg): 0 n (%)
Participants with TEAE: Mild (healthy volunteers; single 0.6 mg): 0 n (%)
Participants with TEAE: Moderate (healthy volunteers; single 0.6 mg): 0 n (%)
Participants with TEAE: Not related (healthy volunteers; single 0.6 mg): 0 n (%)
Participants with TEAE: Related (healthy volunteers; single 0.6 mg): 0 n (%)
Participants with TEAE: Severe (healthy volunteers; single 0.6 mg): 0 n (%)
TEAEs by SOC: Gastrointestinal disorders (healthy volunteers; single 0.6 mg): 0 n (%)
TEAEs by SOC: Investigations (healthy volunteers; single 0.6 mg): 0 n (%)
TEAEs by SOC: Nervous system disorders (healthy volunteers; single 0.6 mg): 0 n (%)
Number of TEAEs (healthy volunteers; single 2 mg): 2 E
Number of participants with a TEAE leading to discontinuation (healthy volunteers; single 2 mg): 0 n (%)
Number of participants with an SAE (healthy volunteers; single 2 mg): 0 n (%)
Number of participants with at least one TEAE (healthy volunteers; single 2 mg): 1 (8.3) n (%)
Participants with TEAE: Mild (healthy volunteers; single 2 mg): 1 (8.3) n (%)
Participants with TEAE: Moderate (healthy volunteers; single 2 mg): 0 n (%)
Participants with TEAE: Not related (healthy volunteers; single 2 mg): 0 n (%)
Participants with TEAE: Severe (healthy volunteers; single 2 mg): 0 n (%)
TEAEs by SOC: Gastrointestinal disorders (healthy volunteers; single 2 mg): 0 n (%)
TEAEs by SOC: Investigations (healthy volunteers; single 2 mg): 1 (8.3) n (%)
TEAEs by SOC: Nervous system disorders (healthy volunteers; single 2 mg): 0 n (%)
Number of TEAEs (healthy volunteers; single 6 mg): 0 E
Number of participants with a TEAE leading to discontinuation (healthy volunteers; single 6 mg): 0 n (%)
Number of participants with an SAE (healthy volunteers; single 6 mg): 0 n (%)
Number of participants with at least one TEAE (healthy volunteers; single 6 mg): 0 n (%)
Participants with TEAE: Mild (healthy volunteers; single 6 mg): 0 n (%)
Participants with TEAE: Moderate (healthy volunteers; single 6 mg): 0 n (%)
Participants with TEAE: Not related (healthy volunteers; single 6 mg): 0 n (%)
Participants with TEAE: Related (healthy volunteers; single 6 mg): 0 n (%)
Participants with TEAE: Severe (healthy volunteers; single 6 mg): 0 n (%)
TEAEs by SOC: Gastrointestinal disorders (healthy volunteers; single 6 mg): 0 n (%)
TEAEs by SOC: Investigations (healthy volunteers; single 6 mg): 0 n (%)
TEAEs by SOC: Nervous system disorders (healthy volunteers; single 6 mg): 0 n (%)
inhibition at 10 µM [1]: 22%
change in thymus weight, absolute value (rats [2]; female rats, 65 mg/kg/day, Day 122, vs vehicle): -17%
change in blood urea level (rats [2]; 20 mg): +13%
change in blood urea level (rats [2]; 65 mg): +10%
NOAEL at 91 day ([3]; oral, 91-day, highest dose tested): 65 mg/kg/day
NOAEL at 91 d ([3]; 91-d repeated oral): > 65 mg/kg/day
THC-induced increase in Nac extracellular dopamine (rats [4]): inhibited
concentration at 264 h as share of Cmax at Day 7 ([5]; MAD, all doses): 4%
Cmax [5, 6]: 4.6 ± 1.4 ng/mL
Tmax [5, 6]: 3 h
half-life ([5]; 0.6 mg/day, MAD Day 7, 0.6 mg/day, 0-264 h, read-out: t½, min-max): 153 to 252 h
Cmax [5, 7]: 3.3 ± 0.3 ng/mL
Tmax [5, 7]: 3 h
Cmax ([5]; 2 mg/day, MAD Day 1, 2 mg/day): 11.6 ± 3.7 ng/mL
Tmax ([5]; 2 mg/day, MAD Day 1, 2 mg/day): 3 h
half-life ([5]; 2 mg/day, MAD Day 7, 2 mg/day, 0-264 h, read-out: t½, min-max): 152 to 240 h
Cmax ([5]; 2 mg/day, MAD Day 7, 2 mg/day): 14.5 ± 4.9 ng/mL
Tmax ([5]; 2 mg/day, MAD Day 7, 2 mg/day): 3 h
Cmax ([5]; 6 mg/day, MAD Day 1, 6 mg/day): 35.9 ± 13.5 ng/mL
Tmax ([5]; 6 mg/day, MAD Day 1, 6 mg/day): 3.5 h
half-life ([5]; 6 mg/day, MAD Day 7, 6 mg/day, 0-264 h, read-out: t½, min-max): 160 to 258 h
Cmax ([5]; 6 mg/day, MAD Day 7, 6 mg/day): 37.1 ± 7.3 ng/mL
Tmax ([5]; 6 mg/day, MAD Day 7, 6 mg/day): 2.5 h
half-life ([5]; humans, MAD study, range between participants, read-out: terminal half-life): 152 to 259 h
THC-increased psychomotor stimulation (mice): inhibited
% Inhibition (mice; [8]): 100%
ID50 (mice; [8]): 0.36 µg/kg
ID100 (mice; [8]): 1.5 µg/kg
